Test results taken from PubChem BioAssay (NCI).
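Protocol summary: plate cells (96-well), add compound at 5 concentrations, incubate 48 h, interpolate endpoints linearly. The concentration for 50% growth inhibition is given as GI50. TGI: concentration producing complete growth inhibition.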

Experiments:
Assay in all cases: inhibition of tumour cell growth, NCI panel, 48 h
786-0 renal = tested on: 786-0 renal
A498 renal = tested on: A498 renal
ACHN renal = tested on: ACHN renal
BT-549 breast = tested on: BT-549 breast
CAKI-1 renal = tested on: CAKI-1 renal
COLO 205 colon = tested on: COLO 205 colon
DU-145 prostate = tested on: DU-145 prostate
HCC-2998 colon = tested on: HCC-2998 colon
HCT-116 colon = tested on: HCT-116 colon
HCT-15 colon = tested on: HCT-15 colon
HL-60(TB) leukemia = tested on: HL-60(TB) leukemia
HOP-62 NSCLC = tested on: HOP-62 NSCLC
HOP-92 NSCLC = tested on: HOP-92 NSCLC
HS 578T breast = tested on: HS 578T breast
HT29 colon = tested on: HT29 colon
IGROV1 ovarian = tested on: IGROV1 ovarian
K-562 leukemia = tested on: K-562 leukemia
KM12 colon = tested on: KM12 colon
LOX IMVI melanoma = tested on: LOX IMVI melanoma
M14 melanoma = tested on: M14 melanoma
MALME-3M melanoma = tested on: MALME-3M melanoma
MCF7 breast = tested on: MCF7 breast
MDA-MB-231 breast = tested on: MDA-MB-231 breast
MDA-MB-435 = tested on: MDA-MB-435
MOLT-4 leukemia = tested on: MOLT-4 leukemia
NCI-H226 lung = tested on: NCI-H226 lung
NCI-H23 lung = tested on: NCI-H23 lung
NCI-H460 lung = tested on: NCI-H460 lung
NCI/ADR-RES ovarian = tested on: NCI/ADR-RES ovarian
OVCAR-3 ovarian = tested on: OVCAR-3 ovarian
OVCAR-4 ovarian = tested on: OVCAR-4 ovarian
OVCAR-5 ovarian = tested on: OVCAR-5 ovarian
OVCAR-8 ovarian = tested on: OVCAR-8 ovarian
PC-3 prostate = tested on: PC-3 prostate
RPMI-8226 leukemia = tested on: RPMI-8226 leukemia
RXF 393 renal = tested on: RXF 393 renal
SF-268 CNS = tested on: SF-268 CNS
SF-295 CNS = tested on: SF-295 CNS
SF-539 CNS = tested on: SF-539 CNS
SK-MEL-2 melanoma = tested on: SK-MEL-2 melanoma
SK-MEL-28 melanoma = tested on: SK-MEL-28 melanoma
SK-MEL-5 melanoma = tested on: SK-MEL-5 melanoma
SK-OV-3 ovarian = tested on: SK-OV-3 ovarian
SN12C renal = tested on: SN12C renal
SNB-19 CNS = tested on: SNB-19 CNS
SNB-75 CNS = tested on: SNB-75 CNS
SR leukemia = tested on: SR leukemia
SW-620 colon = tested on: SW-620 colon
T-47D breast = tested on: T-47D breast
TK-10 renal = tested on: TK-10 renal
U251 CNS = tested on: U251 CNS
UACC-62 melanoma = tested on: UACC-62 melanoma
UO-31 renal = tested on: UO-31 renal

## CCCC(c1nnnn1C1CCCCC1)N1CCN(C(=O)c2ccco2)CC1 (stereo unspecified)
786-0 renal
  GI50: > 100 µM
  TGI: > 100 µM
A498 renal
  GI50: > 100 µM
  TGI: > 100 µM
ACHN renal
  GI50: > 100 µM
  TGI: > 100 µM
BT-549 breast
  GI50: > 100 µM
  TGI: > 100 µM
CAKI-1 renal
  GI50: > 100 µM
  TGI: > 100 µM
COLO 205 colon
  GI50: > 100 µM
  TGI: > 100 µM
DU-145 prostate
  GI50: > 100 µM
  TGI: > 100 µM
HCC-2998 colon
  GI50: > 100 µM
  TGI: > 100 µM
HCT-116 colon
  GI50: > 100 µM
  TGI: > 100 µM
HCT-15 colon
  GI50: > 100 µM
  TGI: > 100 µM
HL-60(TB) leukemia
  GI50: > 100 µM
  TGI: > 100 µM
HOP-62 NSCLC
  GI50: > 100 µM
  TGI: > 100 µM
HOP-92 NSCLC
  GI50: > 100 µM
  TGI: > 100 µM
HS 578T breast
  GI50: > 100 µM
  TGI: > 100 µM
HT29 colon
  GI50: > 100 µM
  TGI: > 100 µM
IGROV1 ovarian
  GI50: > 100 µM
  TGI: > 100 µM
K-562 leukemia
  GI50: > 100 µM
  TGI: > 100 µM
KM12 colon
  GI50: > 100 µM
  TGI: > 100 µM
LOX IMVI melanoma
  GI50: > 100 µM
  TGI: > 100 µM
M14 melanoma
  GI50: > 100 µM
  TGI: > 100 µM
MALME-3M melanoma
  GI50: > 100 µM
  TGI: > 100 µM
MCF7 breast
  GI50: > 100 µM
  TGI: > 100 µM
MDA-MB-231 breast
  GI50: > 100 µM
  TGI: > 100 µM
MDA-MB-435
  GI50: > 100 µM
  TGI: > 100 µM
MOLT-4 leukemia
  GI50: > 100 µM
  TGI: > 100 µM
NCI-H226 lung
  GI50: > 100 µM
  TGI: > 100 µM
NCI-H23 lung
  GI50: > 100 µM
  TGI: > 100 µM
NCI-H460 lung
  GI50: > 100 µM
  TGI: > 100 µM
NCI/ADR-RES ovarian
  GI50: > 100 µM
  TGI: > 100 µM
OVCAR-3 ovarian
  GI50: > 100 µM
  TGI: > 100 µM
OVCAR-4 ovarian
  GI50: > 100 µM
  TGI: > 100 µM
OVCAR-5 ovarian
  GI50: > 100 µM
  TGI: > 100 µM
OVCAR-8 ovarian
  GI50: > 100 µM
  TGI: > 100 µM
PC-3 prostate
  GI50: > 100 µM
  TGI: > 100 µM
RPMI-8226 leukemia
  GI50: > 100 µM
  TGI: > 100 µM
RXF 393 renal
  GI50: > 100 µM
  TGI: > 100 µM
SF-268 CNS
  GI50: > 100 µM
  TGI: > 100 µM
SF-295 CNS
  GI50: > 100 µM
  TGI: > 100 µM
SF-539 CNS
  GI50: > 100 µM
  TGI: > 100 µM
SK-MEL-2 melanoma
  GI50: > 100 µM
  TGI: > 100 µM
SK-MEL-28 melanoma
  GI50: > 100 µM
  TGI: > 100 µM
SK-MEL-5 melanoma
  GI50: > 100 µM
  TGI: > 100 µM
SK-OV-3 ovarian
  GI50: > 100 µM
  TGI: > 100 µM
SN12C renal
  GI50: > 100 µM
  TGI: > 100 µM
SNB-19 CNS
  GI50: > 100 µM
  TGI: > 100 µM
SNB-75 CNS
  GI50: > 100 µM
  TGI: > 100 µM
SR leukemia
  GI50: > 100 µM
  TGI: > 100 µM
SW-620 colon
  GI50: > 100 µM
  TGI: > 100 µM
T-47D breast
  GI50: > 100 µM
  TGI: > 100 µM
TK-10 renal
  GI50: > 100 µM
  TGI: > 100 µM
U251 CNS
  GI50: > 100 µM
  TGI: > 100 µM
UACC-62 melanoma
  GI50: > 100 µM
  TGI: > 100 µM
UO-31 renal
  GI50: > 100 µM
  TGI: > 100 µM
